Source: patent US8012963B2, “3,4-dihydro-2H-benzo[1,4]oxazine and thiazine derivatives as CETP inhibitors” (Janssen Pharmaceutica N.V., priority 2006, dated 2011)
Values joined by “and” are separate entries in the source; they are usually repeats but may differ in a detail not shown here. Equal values may be shown once. One block for each compound: values may come before it.

Tests used:
[1] = tested on: cholesterol-fed hamsters; assay: CETP in vivo assay: lipid parameters in cholesterol-fed hamsters; design: species or system hamster; details: plasma, mean ± SEM
Description: To determine the in vivo efficacy of a test compound, hamsters are first fed a moderately high cholesterol diet (Research Diets, D5012801) for two weeks before commencing treatment. The animals are orally gavaged with the vehicle (10% solutol, 5% ethanol, 85% D5W) and test compound for 5 days with the last dose being administered 2 hrs before sacrifice. Plasma is obtained and lipid parameters (HDL-C, LDL-C, Total Cholesterol, Triglycerides) are measured.

[2] = molecular target: T1, CETP (Homo sapiens, UniProt P11597); assay: CETP in vitro assay ([3H]CE-HDL transfer, Amersham kit TRKQ7005; modified protocol in human plasma); assay type: biochemical; details: multiple values = multiple measurements; for inhibition at 1 µM / % Inhibition @ 1 μM: 1 μM compound
T1 construct: from tissue; host or cells: human plasma from normal volunteers
T1 sequence (P11597 18-493): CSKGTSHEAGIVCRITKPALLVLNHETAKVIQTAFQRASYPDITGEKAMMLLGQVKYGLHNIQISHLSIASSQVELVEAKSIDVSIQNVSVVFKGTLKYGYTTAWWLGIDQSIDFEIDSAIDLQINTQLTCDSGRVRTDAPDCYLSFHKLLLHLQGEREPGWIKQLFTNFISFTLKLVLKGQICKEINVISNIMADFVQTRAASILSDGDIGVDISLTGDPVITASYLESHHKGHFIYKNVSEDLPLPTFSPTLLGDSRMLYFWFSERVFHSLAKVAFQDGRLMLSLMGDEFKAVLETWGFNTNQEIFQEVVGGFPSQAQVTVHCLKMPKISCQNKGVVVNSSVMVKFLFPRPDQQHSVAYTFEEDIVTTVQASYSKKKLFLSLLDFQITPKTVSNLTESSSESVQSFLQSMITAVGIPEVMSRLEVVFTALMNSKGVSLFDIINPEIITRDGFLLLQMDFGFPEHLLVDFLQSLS
Method in brief: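 Normal-volunteer human plasma was incubated ≥4 hr at 37 °C with approx. 25 μg/ml [3H]CE-HDL and compound in DMSO, with a 4 °C blank for non-specific transfer. HDL was separated by Dextralip/MgCl2 precipitation and centrifugation, then supernatant radioactivity counted. IC50 came from % control versus concentration.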

[3] = tested on: rabbits; details: 30 mg/kg; cited from earlier work
[4] = clinical studies; cited from earlier work
[5] = tested on: rabbits; details: rabbits with severe hypercholesterolemia; cited from earlier work

Structure (SMILES): OC(CN1c2cccc(-c3cccc(OC(F)(F)F)c3)c2OCC1c1ccc(OC(F)(F)F)cc1)C(F)(F)F (stereo not shown) [Compound 98, 1,1,1-Trifluoro-3-[3-(4-trifluoromethoxy-phenyl)-8-(3-trifluoromethoxy-phenyl)-2,3-dihydro-benzo[1,4]oxazin-4-yl]-propan-2-ol]
% Inhibition @ 1 μM [2]: 10%

Structure (SMILES): OC(CN1c2cccc(-c3cccc(OC(F)(F)F)c3)c2OCC1c1cccc(Cl)c1)C(F)(F)F (stereo not shown) [Compound 102, 3-[3-(3-Chloro-phenyl)-8-(3-trifluoromethoxy-phenyl)-2,3-dihydro-benzo[1,4]oxazin-4-yl]-1,1,1-trifluoro-propan-2-ol]
% Inhibition @ 1 μM [2]: 0%

Structure (SMILES): OC(CN1c2cccc(-c3cccc(OC(F)(F)F)c3)c2OCC1c1ccoc1)C(F)(F)F (stereo not shown) [Compound 105, 1,1,1-Trifluoro-3-[3-furan-3-yl-8-(3-trifluoromethoxy-phenyl)-2,3-dihydro-benzo[1,4]oxazin-4-yl]-propan-2-ol]
% Inhibition @ 1 μM [2]: 2%

Structure (SMILES): O[C@@H](CN1c2cccc(-c3cccc(OC(F)(F)F)c3)c2SC[C@@H]1c1cccc(OC(F)(F)C(F)F)c1)C(F)(F)F [Compound 107]
% Inhibition @ 1 μM [2]: 59% and 87%
IC50 [2]: 134 nM and 198 nM

Structure (SMILES): O[C@@H](CN1c2cccc(-c3cccc(OC(F)(F)F)c3)c2SC[C@H]1c1cccc(OC(F)(F)C(F)F)c1)C(F)(F)F [Compound 108]
inhibition at 1 µM [2]: 34%
% Inhibition @ 1 μM [2]: 39%
IC50 [2]: > 2920 nM

Structure (SMILES): CCC(CC)CC1(C(=O)Nc2ccccc2SC(=O)C(C)C)CCCCC1 [JTT-705]
CETP activity [3]: inhibited CETP activity
change of HDL-C [3]: +90%
change of lesion size [3]: −70%
change of non-HDL-C cholesterol [3]: −50%
HDL-C [4]: raise HDL-C
LDL-C [4]: modestly lower LDL-C
triglyceride levels [4]: not alter triglyceride levels
plasma triglycerides [5]: significant elevations of plasma triglycerides
prevention of lesion development [5]: not efficacious in preventing lesion development

Now from value to compound, other results behind:

inhibition at 1 µM [2]: 91%
IC50 [2]: 26 nM
Structure (SMILES): O[C@@H](CN1c2cccc(-c3cccc(OC(F)(F)F)c3)c2OC[C@@H]1c1cccc(OC(F)(F)C(F)F)c1)C(F)(F)F [Compound 3, 4H-1,4-Benzoxazine-4-ethanol, 2,3-dihydro-3-[3-(1,1,2,2-tetrafluoroethoxy)phenyl]-8-[3-(trifluoromethoxy)phenyl]-α-(trifluoromethyl)-, (3S,αS)—]
HDL ([1]; 3 mg/kg oral gavage 5 days): 136 ± 6 mg/dL
HDL-C/LDL Ratio ([1]; 3 mg/kg oral gavage 5 days): 3.7 ± 0.2
LDL ([1]; 3 mg/kg oral gavage 5 days): 36 ± 3 mg/dL
Total Cholesterol ([1]; 3 mg/kg oral gavage 5 days): 207 ± 7 mg/dL
Triglycerides ([1]; 3 mg/kg oral gavage 5 days): 278 ± 21 mg/dL
HDL ([1]; 10 mg/kg oral gavage 5 days): 158 ± 10 mg/dL
HDL-C/LDL Ratio ([1]; 10 mg/kg oral gavage 5 days): 5.2 ± 0.4
LDL ([1]; 10 mg/kg oral gavage 5 days): 30 ± 2 mg/dL
Total Cholesterol ([1]; 10 mg/kg oral gavage 5 days): 217 ± 12 mg/dL
Triglycerides ([1]; 10 mg/kg oral gavage 5 days): 282 ± 16 mg/dL
HDL ([1]; 30 mg/kg oral gavage 5 days): 167 ± 5 mg/dL
HDL-C/LDL Ratio ([1]; 30 mg/kg oral gavage 5 days): 6.2 ± 0.3
LDL ([1]; 30 mg/kg oral gavage 5 days): 27 ± 2 mg/dL
Total Cholesterol ([1]; 30 mg/kg oral gavage 5 days): 226 ± 5 mg/dL
Triglycerides ([1]; 30 mg/kg oral gavage 5 days): 300 ± 36 mg/dL

% Inhibition @ 1 μM [2]: 1%
Structure (SMILES): OC(CN1c2cccc(-c3cccc(OC(F)(F)F)c3)c2OCC1c1ccccc1)C(F)(F)F (stereo not shown) [Compound 96, 1,1,1-Trifluoro-3-[3-phenyl-8-(3-trifluoromethoxy-phenyl)-2,3-dihydro-benzo[1,4]oxazin-4-yl]-propan-2-ol]

% Inhibition @ 1 μM [2]: 38%
Structure (SMILES): OC(CN1c2cccc(-c3cccc(OC(F)(F)F)c3)c2OCC1c1ccc(OC(F)(F)F)cc1)C(F)(F)F (stereo not shown) [Compound 97, 1,1,1-Trifluoro-3-[3-(4-trifluoromethoxy-phenyl)-8-(3-trifluoromethoxy-phenyl)-2,3-dihydro-benzo[1,4]oxazin-4-yl]-propan-2-ol]

% Inhibition @ 1 μM [2]: 29%
Structure (SMILES): COc1cccc(C2COc3c(-c4cccc(OC(F)(F)F)c4)cccc3N2CC(O)C(F)(F)F)c1 (stereo not shown) [Compound 99, 1,1,1-Trifluoro-3-[3-(3-methoxy-phenyl)-8-(3-trifluoromethoxy-phenyl)-2,3-dihydro-benzo[1,4]oxazin-4-yl]-propan-2-ol]

% Inhibition @ 1 μM [2]: 6%
Structure (SMILES): COc1cccc(C2COc3c(-c4cccc(OC(F)(F)F)c4)cccc3N2CC(O)C(F)(F)F)c1 (stereo not shown) [Compound 100, 1,1,1-Trifluoro-3-[3-(3-methoxy-phenyl)-8-(3-trifluoromethoxy-phenyl)-2,3-dihydro-benzo[1,4]oxazin-4-yl]-propan-2-ol]

% Inhibition @ 1 μM [2]: 61% and 63%
IC50 [2]: 214 nM
Structure (SMILES): OC(CN1c2cccc(-c3cccc(OC(F)(F)F)c3)c2OCC1c1cccc(Cl)c1)C(F)(F)F (stereo not shown) [Compound 101, 3-[3-(3-Chloro-phenyl)-8-(3-trifluoromethoxy-phenyl)-2,3-dihydro-benzo[1,4]oxazin-4-yl]-1,1,1-trifluoro-propan-2-ol]

% Inhibition @ 1 μM [2]: 20%
Structure (SMILES): OC(CN1c2cccc(-c3cccc(OC(F)(F)F)c3)c2OCC1c1cccs1)C(F)(F)F (stereo not shown) [Compound 103, 1,1,1-Trifluoro-3-[3-thiophen-2-yl-8-(3-trifluoromethoxy-phenyl)-2,3-dihydro-benzo[1,4]oxazin-4-yl]-propan-2-ol]

% Inhibition @ 1 μM [2]: 0%
Structure (SMILES): OC(CN1c2cccc(-c3cccc(OC(F)(F)F)c3)c2OCC1c1cccs1)C(F)(F)F (stereo not shown) [Compound 104, 1,1,1-Trifluoro-3-[3-thiophen-2-yl-8-(3-trifluoromethoxy-phenyl)-2,3-dihydro-benzo[1,4]oxazin-4-yl]-propan-2-ol]

% Inhibition @ 1 μM [2]: 0%
Structure (SMILES): OC(CN1c2cccc(-c3cccc(OC(F)(F)F)c3)c2OCC1c1ccoc1)C(F)(F)F (stereo not shown) [Compound 106, 1,1,1-Trifluoro-3-[3-furan-3-yl-8-(3-trifluoromethoxy-phenyl)-2,3-dihydro-benzo[1,4]oxazin-4-yl]-propan-2-ol]
